Data on 2 molecules can be found in patent US20060004195A1, “Alpha,beta-unsaturated esters and acids by stereoselective dehydration” (priority 2004, published 2006).

Structures are written as SMILES.

`COc1ccc(-n2nc(C[C@H](C(=O)[O-])c3cccc(C)c3)cc2-c2ccc(Cl)c(Cl)c2)cc1.[Na+]` (stereo in doubt) displayed a melting point of 295.5 to 297.5 °C. As to `O=C(O)/C(=C\c1cc(-c2ccc3c(c2)OCO3)n(-c2cc(Cl)ccc2Cl)n1)c1cccc(Cl)c1` [Example 606, (Z)-3-[5-Benzo[1,3]dioxol-5-yl-1-(2,5-dichloro-phenyl)-1H-pyrazol-3-yl]-2-(3-chloro-phenyl)-acrylic acid], the melting point worked out at 174 °C.

A word on the melting point: it is the temperature of the solid-liquid transition.
